# Test results from patent US20170128409A1, “PROPHYLACTIC OR THERAPEUTIC AGENT FOR ATTENTION DEFICIT/HYPERACTIVITY DISORDER” (Takeda Pharmaceutical Company Limited, priority 2008, published 2017).
# Legend:
# SHR-SP rats = experiment: 2-lever discriminative reaction task in SHR-SP rats (ADHD model); format: in vivo, rat
# Excerpt: A. Test method (1) While spontaneously hypertensive rat (SHR) is a hypertension model rat widely used in research, this lineage not only develops hypertension but also behaves similarly in the juvenile stage to patients with attention deficit/hyperactivity disorder (attention-deficit/hyperactivity disorder: ADHD), as evidenced by disrupted retention of attention and the like (Sagvolden T, Russell V A, Aase H, Johansen E B, Farshbaf M. (2005): Rodent models of attention-deficit/hyperactivity disorder. Biol Psychiatry. 57(11): 1239-47). Particularly, SHR-SP (subtype of SHR) in the juvenile stage is recently recognized as an animal model of developmental disorder such as ADHD by those of ordinary skill in the art (Ueno K I, Togashi H, Mori K, Matsumoto M, Ohashi S, Hoshino A, Fujita T, Saito H, Minami M, Yoshioka M. (2002): Behavioural and pharmacological relevance of stroke-prone spontaneously hypertensive rats as an animal model of a developmental disorder. Behav Pharmacol. 13(1): 1-13).
# Thus, those of ordinary skill in the art consider that SHR-SP is suitable as an ADHD model.
# Therefore, the inventor employed the SHR-SP rats and evaluated the effect of compound A on ADHD.
# (2) The test was performed using 24 SHR-SP rats and 12 WKY rats (both 5-week-old; provided by CLEA Japan, Inc.). They were reared at 12 hr light-dark cycle (light was on at 7:00 am) and allowed free access to water. The feeding was restricted such that the body weight was 85% of that by free food ingestion. All rats were subjected to handling before the test.
# As a test apparatus, 4 Skinner boxes each equipped with a 45 mg feed pellet feeding tray (reward delivery opening) in the center of the wall and a cue lamp and a retractable lever set on the sides of the tray were set (see FIG. 1).
# (3) The rats were trained for 2 days for lever pressing-feeding associative learning. One session consisted of 30 trials or 900 sec. Two levers were presented, pressing either lever affords feed pellets (reinforcer), and a buzzer sound indicating correctness was made. Solely in the training on the initial day, feed pellets were automatically given with a buzzer every 45 seconds. All animals reached the criteria obtaining 30 feed pellets within 300 sec. (4) In the test session, a 2-lever discriminative reaction task was performed. In the 2-lever discriminative reaction task, 1 session consisted of 30 sets of ITI (inter-trial interval) for 30 sec and reaction latency for 30 sec maximum. The house lamp was turned on at the start of the session to indicate both retractable levers. The lever pressing reaction of the animal was sequentially recorded while indicating the levers until completion of 30 trials. […]
# SHR-SP = details: at a low dose; cited from earlier work
SMILES,"transition of total number of reaction during trials (index of impulsivity) (SHR-SP rats; 1.0 mg/kg oral daily, up to session 4, positive drug group vs control group, FIG. 5)","correct answer latency (reaction latency when correct answer was selected) (index of motivation, sedation and the like) (SHR-SP rats; 1.0 mg/kg oral, 14 consecutive days, positive drug group vs control group, FIG. 7)","number of correct answers (number of reward obtained) (index of attentional deficit) (SHR-SP rats; 1.0 mg/kg oral, 14 consecutive days, positive drug group vs control group, p=0.09, FIG. 6)","total number of reaction during trials (index of impulsivity) (SHR-SP rats; 1.0 mg/kg oral, 14 consecutive days, session 11, positive drug group vs control group, t-test p=0.09, FIG. 5)",effect on abnormal behaviors of SHR-SP (SHR-SP)
"CCC(=O)NCC[C@@H]1CCc2ccc3c(c21)CCO3 [compound A, (S)—N-[2-(1,6,7,8-tetrahydro-2H-indeno[5,4-b]furan-8-yl)ethyl]propionamide]",similar,did not show much difference,tended to increase,tended to decrease,
COC(=O)C(c1ccccc1)C1CCCCN1 (centres unmarked) [methylphenidate],,,,,improving effect
